Source: ChEMBL document CHEMBL3124747, “Formosusin A, a novel specific inhibitor of mammalian DNA polymerase β from the fungus Paecilomyces formosus” (Bioorg Med Chem, 2014)

What was measured:
Polynucleotide kinase = Polynucleotide kinase (Enterobacteria phage T4, UniProt P06855); assay: Inhibition of T4 bacteriophage polynucleotide kinase assessed as inhibition of incorporation of dTTP into poly(dA)/oligo(dT)18 after 60 mins; design: species or system Tequatrovirus T4
[1] = Inhibition of calf DNA primase of polymerase alpha assessed as inhibition of incorporation of dTTP into poly(dA)/oligo(dT)18 after 60 mins; design: species or system Bos taurus
[2] = target: T1, DNA-directed DNA polymerase (Enterobacteria phage T4, UniProt P04415); assay: Inhibition of T4 bacteriophage DNA polymerase assessed as inhibition of incorporation of dTTP into poly(dA)/oligo(dT)18 after 60 mins; design: species or system Tequatrovirus T4
T1 sequence (P04415 whole entry): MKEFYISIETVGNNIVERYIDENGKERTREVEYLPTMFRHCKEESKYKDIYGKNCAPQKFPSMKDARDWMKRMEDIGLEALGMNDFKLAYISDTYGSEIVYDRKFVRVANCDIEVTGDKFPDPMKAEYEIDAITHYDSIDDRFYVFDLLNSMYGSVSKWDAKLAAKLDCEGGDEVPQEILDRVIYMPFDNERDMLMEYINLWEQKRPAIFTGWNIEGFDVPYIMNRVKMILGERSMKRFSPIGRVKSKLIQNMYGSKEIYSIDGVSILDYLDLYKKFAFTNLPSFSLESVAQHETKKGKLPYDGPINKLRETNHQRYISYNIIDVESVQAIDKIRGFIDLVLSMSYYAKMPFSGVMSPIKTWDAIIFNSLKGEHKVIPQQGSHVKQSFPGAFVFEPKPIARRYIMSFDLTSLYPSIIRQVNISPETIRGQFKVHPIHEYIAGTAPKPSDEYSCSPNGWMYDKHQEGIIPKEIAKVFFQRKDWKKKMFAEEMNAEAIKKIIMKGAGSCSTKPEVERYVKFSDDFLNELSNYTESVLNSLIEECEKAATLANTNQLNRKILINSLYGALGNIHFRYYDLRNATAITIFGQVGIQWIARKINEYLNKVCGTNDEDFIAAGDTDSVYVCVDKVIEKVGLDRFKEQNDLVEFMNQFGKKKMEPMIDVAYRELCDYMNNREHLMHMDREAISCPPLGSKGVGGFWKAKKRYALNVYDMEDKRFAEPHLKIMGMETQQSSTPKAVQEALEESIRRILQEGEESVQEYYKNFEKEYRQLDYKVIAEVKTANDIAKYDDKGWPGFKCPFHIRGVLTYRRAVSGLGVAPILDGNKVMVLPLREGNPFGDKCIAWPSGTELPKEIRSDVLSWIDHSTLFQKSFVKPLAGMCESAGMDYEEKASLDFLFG

[3] = Inhibition of C-terminal His-6-tagged L. cv.Nipponbare rice recombinant DNA polymerase lambda expressed in Escherichia coli assessed as inhibition of incorporation of dTTP into poly(dA)/oligo(dT)18 after 60 mins; design: species or system Oryza sativa
[4] = target: T2, DNA polymerase alpha catalytic subunit (Drosophila melanogaster, UniProt P26019); assay: Inhibition of fruit fly DNA polymerase alpha assessed as inhibition of incorporation of dTTP into poly(dA)/oligo(dT)18 after 60 mins
T2 sequence (P26019 whole entry): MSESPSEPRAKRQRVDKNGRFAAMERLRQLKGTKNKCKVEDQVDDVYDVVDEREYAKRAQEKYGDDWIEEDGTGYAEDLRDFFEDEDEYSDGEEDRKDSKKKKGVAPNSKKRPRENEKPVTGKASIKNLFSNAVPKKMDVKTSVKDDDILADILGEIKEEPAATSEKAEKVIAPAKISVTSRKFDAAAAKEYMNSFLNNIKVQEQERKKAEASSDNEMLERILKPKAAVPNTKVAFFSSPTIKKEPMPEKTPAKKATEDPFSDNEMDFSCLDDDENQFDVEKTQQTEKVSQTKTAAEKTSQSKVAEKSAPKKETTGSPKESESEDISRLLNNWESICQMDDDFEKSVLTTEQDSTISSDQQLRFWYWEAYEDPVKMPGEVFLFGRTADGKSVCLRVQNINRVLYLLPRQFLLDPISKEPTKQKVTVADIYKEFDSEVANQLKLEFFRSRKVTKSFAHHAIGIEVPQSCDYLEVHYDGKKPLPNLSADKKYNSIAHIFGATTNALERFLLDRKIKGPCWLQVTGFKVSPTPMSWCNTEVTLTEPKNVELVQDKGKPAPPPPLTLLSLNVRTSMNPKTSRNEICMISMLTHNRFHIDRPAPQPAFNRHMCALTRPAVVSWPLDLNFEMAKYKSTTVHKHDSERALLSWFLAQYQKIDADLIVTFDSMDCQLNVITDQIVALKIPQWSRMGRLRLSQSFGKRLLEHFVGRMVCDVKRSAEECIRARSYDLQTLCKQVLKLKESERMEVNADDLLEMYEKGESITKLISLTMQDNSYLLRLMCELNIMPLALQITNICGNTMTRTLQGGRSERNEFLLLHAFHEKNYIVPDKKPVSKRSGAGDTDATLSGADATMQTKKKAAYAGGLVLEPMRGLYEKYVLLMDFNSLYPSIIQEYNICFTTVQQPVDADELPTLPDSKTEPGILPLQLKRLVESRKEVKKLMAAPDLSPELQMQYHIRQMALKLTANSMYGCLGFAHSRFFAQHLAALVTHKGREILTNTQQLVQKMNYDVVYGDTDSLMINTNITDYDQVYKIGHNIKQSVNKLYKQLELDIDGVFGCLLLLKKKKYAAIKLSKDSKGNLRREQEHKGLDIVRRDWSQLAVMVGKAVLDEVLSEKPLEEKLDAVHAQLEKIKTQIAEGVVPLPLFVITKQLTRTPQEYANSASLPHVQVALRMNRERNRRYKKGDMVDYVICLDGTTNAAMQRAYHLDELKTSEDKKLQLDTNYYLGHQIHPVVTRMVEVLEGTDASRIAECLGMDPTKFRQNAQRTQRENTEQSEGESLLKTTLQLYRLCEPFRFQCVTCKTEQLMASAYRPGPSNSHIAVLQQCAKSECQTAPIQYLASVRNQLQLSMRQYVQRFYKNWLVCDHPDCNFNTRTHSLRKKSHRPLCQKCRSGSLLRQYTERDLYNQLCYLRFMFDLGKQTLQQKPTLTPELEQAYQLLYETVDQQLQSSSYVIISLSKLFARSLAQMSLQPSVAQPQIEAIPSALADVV

[5] = Inhibition of cherry salmon DNA polymerase delta assessed as inhibition of incorporation of dTTP into poly(dA)/oligo(dT)18 after 60 mins; design: species or system Oncorhynchus masou

Measured: IC50

Chain of Polynucleotide kinase (P06855 whole entry): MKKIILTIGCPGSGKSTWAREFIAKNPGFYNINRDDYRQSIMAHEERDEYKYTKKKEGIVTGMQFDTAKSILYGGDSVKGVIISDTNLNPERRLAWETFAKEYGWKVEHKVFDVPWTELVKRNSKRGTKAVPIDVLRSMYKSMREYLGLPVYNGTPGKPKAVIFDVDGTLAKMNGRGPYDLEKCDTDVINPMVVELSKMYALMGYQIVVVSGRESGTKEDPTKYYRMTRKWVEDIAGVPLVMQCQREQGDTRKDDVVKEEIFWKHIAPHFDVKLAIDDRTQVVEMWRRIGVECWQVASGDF

CC(/C=C/CCC(=O)N1CCCC1=O)=C\C1CCCCO1 (centres undefined)
> 200 µM: Polynucleotide kinase | [1] | [2] | [3] | [4] | [5]

CCCC[C@@H](O)/C=C(C)/C=C/C=C/C(=O)N1CCCC1=O [PECILOCIN]
> 200 µM: Polynucleotide kinase | [1] | [2] | [3] | [4] | [5]

CCCC[C@@H](O)/C=C(C)/C=C/C=C\C(=O)N1CCCC1=O
> 200 µM: Polynucleotide kinase | [1] | [2] | [3] | [4] | [5]

CCCCC(=O)/C=C(C)/C=C/CCC(=O)N1CCCC1=O
> 200 µM: Polynucleotide kinase | [1] | [2] | [3] | [4] | [5]
